Results as given in US20220041606A1, “POSITIVE ALLOSTERIC MODULATORS OF THE MUSCARINIC ACETYLCHOLINE RECEPTOR M1” (Vanderbilt University, priority 2020, published 2022).

What was measured:
human mAChR M1 [1] = molecular target: T1, human mAChR M1 (Homo sapiens, UniProt P11229); test: mAChR M1 cell-based functional assay (calcium mobilization), agonist activity upon compound addition; conditions: CHO-K1 cells expressing hM1; for EC50: compound alone, before acetylcholine addition; for Emax: relative to the maximum for acetylcholine
T1 construct: host or cells: CHO-K1 cells (ATCC), stably transfected using Lipofectamine2000
T1 sequence (P11229 1-460): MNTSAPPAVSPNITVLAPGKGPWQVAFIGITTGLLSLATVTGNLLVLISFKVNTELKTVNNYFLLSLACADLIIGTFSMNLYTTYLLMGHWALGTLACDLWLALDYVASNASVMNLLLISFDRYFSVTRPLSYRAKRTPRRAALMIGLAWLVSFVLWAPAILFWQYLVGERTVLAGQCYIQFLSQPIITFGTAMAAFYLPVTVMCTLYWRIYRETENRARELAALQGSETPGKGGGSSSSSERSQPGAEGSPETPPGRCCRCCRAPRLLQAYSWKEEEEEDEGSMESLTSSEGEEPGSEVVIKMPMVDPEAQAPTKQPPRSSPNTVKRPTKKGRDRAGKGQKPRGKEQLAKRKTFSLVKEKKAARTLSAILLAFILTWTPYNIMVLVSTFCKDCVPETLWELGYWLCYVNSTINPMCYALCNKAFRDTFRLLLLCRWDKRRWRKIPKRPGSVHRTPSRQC
Summary of the method: (§1)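 CHO-K1 cells stably expressing hM1, loaded with Fluo-4 AM; calcium flux read on FDSS 6000. Compound (11-point, 1:3 CRC) added at 4 s, EC20 acetylcholine at 144 s, EC80 at 230 s; agonism from response to compound alone, PAM from increase in EC20 response; Emax relative to acetylcholine maximum, four-parameter fit.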

human mAChR M1 [2] = molecular target: T1, human mAChR M1; test: mAChR M1 cell-based functional assay (calcium mobilization), PAM activity: increase in the EC20 acetylcholine response; conditions: CHO-K1 cells expressing hM1; potentiation of EC20 acetylcholine response
Summary of the method: as §1

Row | SMILES | EC50 (human mAChR M1 [1]) | Emax (human mAChR M1 [1]) | EC50 (human mAChR M1 [2]) | Emax (human mAChR M1 [2])
1 | Cn1ccc(-c2ccc(Cn3cc(C(=O)NC4CCOC(C)(C)C4)c4occc4c3=O)c(F)c2)n1 (stereo not shown) [Compound D11, N-(2,2-dimethyltetrahydro-2H-pyran-4-yl)-5-(2-fluoro-4-(1-methyl-1H-pyrazol-3-yl)benzyl)-4-oxo-4,5-dihydrofuro[3,2-c]pyridine-7-carboxamide] | > 10 µM | < 5% | > 10000 nM | 24%
2 | Cn1cc(-c2ccc(Cn3cc(C(=O)N[C@H]4CCOC[C@@H]4O)c4nccn4c3=O)cn2)cn1 [Compound B10, N-((3R,4S)-3-hydroxytetrahydro-2H-pyran-4-yl)-6-((6-(1-methyl-1H-pyrazol-4-yl)pyridin-3-yl)methyl)-5-oxo-5,6-dihydroimidazo[1,2-c]pyrimidine-8-carboxamide] |  | 41% | 480 nM | 60%
3 | Cn1cc2c(-c3cc(F)c(Cn4cc(C(=O)N[C@H]5CCCC[C@@H]5O)c5ncncc5c4=O)c(F)c3)cccc2n1 [Compound A88, 6-(2,6-Difluoro-4-(2-methyl-2H-indazol-4-yl)benzyl)-N-((1S,2S)-2-hydroxycyclohexyl)-5-oxo-5,6-dihydropyrido[4,3-d]pyrimidine-8-carboxamide] | > 10 µM | < 5% | ≥ 10000 nM | 40%
4 | Cn1ccc(-c2ccc(Cn3cc(C(=O)N[C@H]4CCC[C@@H]4O)c4nccnc4c3=O)c(F)c2)n1 [Compound A64, 6-(2-fluoro-4-(1-methyl-1H-pyrazol-3-yl)benzyl)-N-((1S,2S)-2-hydroxycyclopentyl)-5-oxo-5,6-dihydropyrido[3,4-b]pyrazine-8-carboxamide] | > 10 µM | 41% | ≥ 10000 nM | 41%
5 | Cn1cc2c(-c3cc(F)c(Cn4cc(C(=O)NCC5CCCO5)c5occc5c4=O)c(F)c3)cccc2n1 (stereo not shown) [Compound D25, 5-(2,6-difluoro-4-(2-methyl-2H-indazol-4-yl)benzyl)-4-oxo-N-((tetrahydrofuran-2-yl)methyl)-4,5-dihydrofuro[3,2-c]pyridine-7-carboxamide] | > 10 µM | < 5% | > 10000 nM | 53%
6 | Cn1cc2c(-c3cc(F)c(Cn4cc(C(=O)N[C@H]5CCC[C@@H]5O)c5nccnc5c4=O)c(F)c3)cccc2n1 [Compound A68, 6-(2,6-difluoro-4-(2-methyl-2H-indazol-4-yl)benzyl)-N-((1S,2S)-2-hydroxycyclopentyl)-5-oxo-5,6-dihydropyrido[3,4-b]pyrazine-8-carboxamide] |  | 8% | 1200 nM | 74%
7 | Cc1cnn(C)c1-c1ccc(Cn2cc(C(=O)N[C@H]3CCCC[C@@H]3O)c3nccn3c2=O)c(F)c1 [Compound B35, 6-(4-(1,4-dimethyl-1H-pyrazol-5-yl)-2-fluorobenzyl)-N-((1S,2S)-2-hydroxycyclohexyl)-5-oxo-5,6-dihydroimidazo[1,2-c]pyrimidine-8-carboxamide] | > 10 µM | < 5% | 7020 nM | 44%
8 | O=C(N[C@H]1CCOC[C@@H]1O)c1cn(Cc2c(F)cc(-c3ccns3)cc2F)c(=O)c2cccnc12 [Compound A50, 6-(2,6-difluoro-4-(isothiazol-5-yl)benzyl)-N-((3R,4S)-3-hydroxytetrahydro-2H-pyran-4-yl)-5-oxo-5,6-dihydro-1,6-naphthyridine-8-carboxamide] | > 10 µM | < 5% | 1790 nM | 69%
9 | Cc1cc(-c2ccc(Cn3cc(C(=O)N[C@H]4CCCC[C@@H]4O)c4ncccc4c3=O)c(F)c2)ccn1 [Compound A27, 6-(2-Fluoro-4-(2-methylpyridin-4-yl)benzyl)-N-((1S,2S)-2-hydroxycyclohexyl)-5-oxo-5,6-dihydro-1,6-naphthyridine-8-carboxamide] | > 10 µM | 6% | 860 nM | 74%
10 | Cn1cc2c(-c3cc(F)c(Cn4cc(C(=O)N[C@H]5CCOC[C@@H]5O)c5occc5c4=O)c(F)c3)cccc2n1 [Compound D18, 5-(2,6-Difluoro-4-(2-methyl-2H-indazol-4-yl)benzyl)-N-((3R,4S)-3-hydroxytetrahydro-2H-pyran-4-yl)-4-oxo-4,5-dihydrofuro[3,2-c]pyridine-7-carboxamide] | 2.27 µM | 11% | 280 nM | 85%
11 | Cc1nc(-c2ccc(Cn3cc(C(=O)N[C@H]4CCCC[C@@H]4O)c4ncccc4c3=O)cc2)co1 [Compound A20, N-((1S,2S)-2-hydroxycyclohexyl)-6-(4-(2-methyloxazol-4-yl)benzyl)-5-oxo-5,6-dihydro-1,6-naphthyridine-8-carboxamide] | > 10 µM | < 5% | 780 nM | 63%
12 | Cn1ccc(-c2ccc(Cn3cc(C(=O)N[C@H]4CCOC[C@@H]4O)c4nccnc4c3=O)c(F)c2)n1 [Compound A63, 6-(2-fluoro-4-(1-methyl-1H-pyrazol-3-yl)benzyl)-N-((3R,4S)-3-hydroxytetrahydro-2H-pyran-4-yl)-5-oxo-5,6-dihydropyrido[3,4-b]pyrazine-8-carboxamide] | > 10 µM | 7% | ≥ 10000 nM | 55%
13 | O=C(N[C@H]1CCC[C@@H]1O)c1cn(Cc2ccc(-n3cccn3)cc2)c(=O)c2cccnc12 [Compound A14, 6-(4-(1H-pyrazol-1-yl)benzyl)-N-((1S,2S)-2-hydroxycyclopentyl)-5-oxo-5,6-dihydro-1,6-naphthyridine-8-carboxamide] | > 10 µM | < 5% | 7780 nM | 64%
14 | O=C(N[C@H]1CCOC[C@@H]1O)c1cn(Cc2c(F)cc(-c3cncs3)cc2F)c(=O)c2cccnc12 [Compound A49, 6-(2,6-Difluoro-4-(thiazol-5-yl)benzyl)-N-((3R,4S)-3-hydroxytetrahydro-2H-pyran-4-yl)-5-oxo-5,6-dihydro-1,6-naphthyridine-8-carboxamide] | > 10 µM | < 5% | 980 nM | 65%
15 | Cn1ccc(-c2ccc(Cn3cc(C(=O)N[C@H]4CCOC[C@@H]4O)c4sccc4c3=O)c(F)c2)n1 [Compound D26, 5-(2-fluoro-4-(1-methyl-1H-pyrazol-3-yl)benzyl)-N-((3R,4S)-3-hydroxytetrahydro-2H-pyran-4-yl)-4-oxo-4,5-dihydrothieno[3,2-c]pyridine-7-carboxamide] | > 10 µM | < 5% | > 10000 nM | 34%
16 | Cn1cc2c(-c3cc(F)c(Cn4cc(C(=O)N[C@H]5CCCCC[C@@H]5O)c5ncccc5c4=O)c(F)c3)cccc2n1 [Compound A23, 6-(2,6-difluoro-4-(2-methyl-2H-indazol-4-yl)benzyl)-N-((1S,2S)-2-hydroxycycloheptyl)-5-oxo-5,6-dihydro-1,6-naphthyridine-8-carboxamide] | > 10 µM | < 5% | 210 nM | 67%
17 | Cn1nccc1-c1ccc(Cn2cc(C(=O)N[C@H]3CCOC[C@@H]3O)c3nccn3c2=O)c(F)c1 [Compound B31, 6-(2-fluoro-4-(1-methyl-1H-pyrazol-5-yl)benzyl)-N-((3R,4S)-3-hydroxytetrahydro-2H-pyran-4-yl)-5-oxo-5,6-dihydroimidazo[1,2-c]pyrimidine-8-carboxamide] | > 10 µM | 6% | 1130 nM | 82%
18 | COc1cc(-c2cc(F)c(Cn3cc(C(=O)N[C@H]4CCOC[C@@H]4O)c4ncccc4c3=O)c(F)c2)ccc1Cl [Compound A39, 6-((4′-chloro-3,5-difluoro-3′-methoxy-[1,1′-biphenyl]-4-yl)methyl)-N-((3R,4S)-3-hydroxytetrahydro-2H-pyran-4-yl)-5-oxo-5,6-dihydro-1,6-naphthyridine-8-carboxamide] | > 10 µM | < 5% | ≥ 10000 nM | 41%
19 | Cn1ccc(-c2ccc(Cn3cc(C(=O)N[C@H]4CCC[C@@H]4O)c4ncn(C)c4c3=O)c(F)c2)n1 [Compound C2, 5-(2-fluoro-4-(1-methyl-1H-pyrazol-3-yl)benzyl)-N-((1S,2S)-2-hydroxycyclopentyl)-3-methyl-4-oxo-4,5-dihydro-3H-imidazo[4,5-c]pyridine-7-carboxamide] | > 10 µM | < 5% | 600 nM | 45%
20 | Cc1cc(C)cc(-c2cc(F)c(Cn3cc(C(=O)N[C@H]4CCOC[C@@H]4O)c4ncccc4c3=O)c(F)c2)c1 [Compound A32, 6-((3,5-difluoro-3′,5′-dimethyl-[1,1′-biphenyl]-4-yl)methyl)-N-((3R,4S)-3-hydroxytetrahydro-2H-pyran-4-yl)-5-oxo-5,6-dihydro-1,6-naphthyridine-8-carboxamide] | > 10 µM | < 5% | 2240 nM | 70%
21 | O=C(N[C@H]1CCCCC[C@@H]1O)c1cn(Cc2ccc(-n3cccn3)cc2)c(=O)n2ccnc12 [Compound B16, 6-(4-(1H-pyrazol-1-yl)benzyl)-N-((1S,2S)-2-hydroxycycloheptyl)-5-oxo-5,6-dihydroimidazo[1,2-c]pyrimidine-8-carboxamide] | > 10 µM | < 5% | 520 nM | 81%
